Assay [1] has as its target EGFR (human) (UniProt P00533). Particulars: h1975.
Assay [2] addresses EGFR (human) (UniProt P00533). Particulars: a549.
The target in assay [3] is EGFR (human), P00533 [L858R].
Assay [4] concerns the target EGFR (human) (UniProt P00533). The settings on record: hcc827.
The target in assay [5] is EGFR (human), P00533 [WT].

Data on three compounds can be found in the Kinase Knowledgebase extract (Sharma et al. 2016).

By IC50 is commonly meant the concentration that inhibits the measured activity by half. Read a low IC50 as higher potency.

EGFR (human), sequence (P00533 whole entry, looked up): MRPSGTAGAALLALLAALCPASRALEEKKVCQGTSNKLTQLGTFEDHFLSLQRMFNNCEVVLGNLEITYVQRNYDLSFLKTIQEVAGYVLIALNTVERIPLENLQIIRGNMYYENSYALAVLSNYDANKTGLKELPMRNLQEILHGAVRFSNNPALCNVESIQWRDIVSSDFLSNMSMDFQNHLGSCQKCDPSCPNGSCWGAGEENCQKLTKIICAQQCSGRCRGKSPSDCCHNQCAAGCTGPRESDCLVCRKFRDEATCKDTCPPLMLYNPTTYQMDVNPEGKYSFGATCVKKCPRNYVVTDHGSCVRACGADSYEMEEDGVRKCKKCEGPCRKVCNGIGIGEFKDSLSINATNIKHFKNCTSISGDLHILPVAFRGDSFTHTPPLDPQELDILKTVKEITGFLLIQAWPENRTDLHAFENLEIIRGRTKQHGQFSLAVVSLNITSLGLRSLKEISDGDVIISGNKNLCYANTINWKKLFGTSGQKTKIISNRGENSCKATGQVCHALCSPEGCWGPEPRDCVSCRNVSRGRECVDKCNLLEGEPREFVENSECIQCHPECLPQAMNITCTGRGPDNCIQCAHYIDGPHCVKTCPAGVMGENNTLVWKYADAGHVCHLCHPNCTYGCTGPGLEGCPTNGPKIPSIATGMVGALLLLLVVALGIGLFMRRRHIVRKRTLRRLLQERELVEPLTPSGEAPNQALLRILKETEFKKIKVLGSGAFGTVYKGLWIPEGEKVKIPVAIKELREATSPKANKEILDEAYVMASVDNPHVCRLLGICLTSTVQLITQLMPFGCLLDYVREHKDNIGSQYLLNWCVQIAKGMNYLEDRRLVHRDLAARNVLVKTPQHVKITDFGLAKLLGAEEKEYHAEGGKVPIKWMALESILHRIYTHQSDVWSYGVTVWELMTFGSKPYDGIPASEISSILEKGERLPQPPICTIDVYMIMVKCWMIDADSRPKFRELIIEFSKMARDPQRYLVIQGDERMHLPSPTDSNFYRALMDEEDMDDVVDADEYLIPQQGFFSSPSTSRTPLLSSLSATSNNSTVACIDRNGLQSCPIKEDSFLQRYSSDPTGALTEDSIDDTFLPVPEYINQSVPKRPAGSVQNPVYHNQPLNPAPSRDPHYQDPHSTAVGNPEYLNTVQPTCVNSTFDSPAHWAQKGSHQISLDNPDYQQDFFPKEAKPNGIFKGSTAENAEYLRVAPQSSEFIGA
EGFR (human), P00533 [WT], sequence (P00533 whole entry, looked up): as above
EGFR (human), P00533 [L858R], sequence (P00533 whole entry L858R, looked up): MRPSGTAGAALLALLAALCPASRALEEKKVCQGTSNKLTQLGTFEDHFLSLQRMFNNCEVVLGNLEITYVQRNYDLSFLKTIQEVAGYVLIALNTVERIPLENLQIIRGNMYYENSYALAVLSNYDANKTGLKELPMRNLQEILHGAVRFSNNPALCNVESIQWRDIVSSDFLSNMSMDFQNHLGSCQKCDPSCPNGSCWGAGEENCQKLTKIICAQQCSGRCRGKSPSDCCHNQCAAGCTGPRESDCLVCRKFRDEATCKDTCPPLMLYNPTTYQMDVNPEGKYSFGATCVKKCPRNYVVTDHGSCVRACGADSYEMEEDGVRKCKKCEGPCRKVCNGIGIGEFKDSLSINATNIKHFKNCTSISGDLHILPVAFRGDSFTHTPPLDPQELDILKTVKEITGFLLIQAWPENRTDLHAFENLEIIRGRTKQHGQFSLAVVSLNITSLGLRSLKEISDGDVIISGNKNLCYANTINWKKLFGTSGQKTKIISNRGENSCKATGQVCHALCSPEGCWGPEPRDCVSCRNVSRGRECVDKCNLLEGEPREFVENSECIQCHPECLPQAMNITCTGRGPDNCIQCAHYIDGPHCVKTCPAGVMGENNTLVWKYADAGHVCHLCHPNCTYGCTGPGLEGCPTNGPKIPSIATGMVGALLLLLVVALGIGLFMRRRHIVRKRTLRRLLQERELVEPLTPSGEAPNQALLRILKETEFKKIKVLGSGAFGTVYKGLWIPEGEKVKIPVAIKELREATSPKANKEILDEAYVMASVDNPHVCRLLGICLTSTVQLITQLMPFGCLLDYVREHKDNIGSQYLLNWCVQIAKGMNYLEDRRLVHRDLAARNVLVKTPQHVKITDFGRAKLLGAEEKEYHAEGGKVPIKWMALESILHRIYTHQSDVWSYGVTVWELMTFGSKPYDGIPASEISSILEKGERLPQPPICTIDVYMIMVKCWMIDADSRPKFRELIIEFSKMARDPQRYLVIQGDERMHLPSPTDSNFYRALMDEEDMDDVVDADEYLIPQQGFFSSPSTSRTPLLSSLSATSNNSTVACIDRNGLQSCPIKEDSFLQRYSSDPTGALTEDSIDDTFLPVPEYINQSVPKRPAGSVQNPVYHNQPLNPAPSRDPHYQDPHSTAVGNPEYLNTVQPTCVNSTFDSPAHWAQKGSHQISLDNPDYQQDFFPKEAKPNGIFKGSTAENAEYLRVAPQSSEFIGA

Take `COc1cc2c(Oc3ccc(NS(=O)(=O)c4ccc(-c5cnn(C)c5)cc4)cc3F)ccnc2cc1OCCCN1CCN(C)CC1`: the IC50 on EGFR (human) [1] and against EGFR (human) [2] was > 10000 nM in each case.
For `COc1cc2c(Oc3ccc(NC(=O)C4=C(C)N(C)C(c5ccccc5)C4=O)cc3F)ccnc2cc1OCCCN1CCN(C)CC1` (configuration not stated), the IC50 is > 16000 nM in assay [3]; 1060 nM at EGFR (human) [1]; 2580 nM at EGFR (human) [4]; 7670 nM in assay [5]; 1240 nM against EGFR (human) [2].
For `COc1cc2c(Oc3ccc(NC(=O)C4=C(C)N(C)C(c5ccccc5)C4=O)cc3F)ccnc2cc1OCCCN1CCOCC1` (configuration not stated), in that order: > 16000 nM, 1460 nM, 2510 nM, > 16000 nM and 1190 nM.
